One data set deals with PC-3. In words: Antiproliferative activity against human PC3 cells after 48 hrs by MTT assay. The class given is functional, cell-based. To be noted: PC-3, 48 h. (In general: Formazan colour is commonly taken as a measure of viable cells.)
A short description of data set [1]: Photostability of the compound in anhydrous methanol solution under UV irradiation of 15 W after 24 hrs by UV-vis spectroscopic analysis.
Data set [2] in a line: Stability of the compound in anhydrous methanol solution under dark condition after 24 hrs by UV-vis spectroscopic analysis.

Regarding `CCN(CCO)C1=C(/C=C/C2=[N+](C)c3ccccc3C2(C)C)CCC/C1=C\C=C1\N(C)c2ccccc2C1(C)C`, in the data set on PC-3, the IC50 (usually the concentration that inhibits the measured activity by half) amounted to 9.08 µM.

Consider `CN(CCO)C1=C(/C=C/C2=[N+](C)c3ccccc3C2(C)C)CCC/C1=C\C=C1\N(C)c2ccccc2C1(C)C`, for which, in the data set with PC-3, the IC50 was found to be 9.23 µM.

In the data set on PC-3, `CN(C)CCSC1=C(/C=C/C2=[N+](C)c3ccccc3C2(C)C)CCC/C1=C\C=C1\N(C)c2ccccc2C1(C)C` displayed an IC50 of 6.04 µM. `CN(C)CCNC1=C(/C=C/C2=[N+](C)c3ccccc3C2(C)C)CCC/C1=C\C=C1\N(C)c2ccccc2C1(C)C` had a half-maximal inhibitory concentration (IC50) in the data set with PC-3 of 13.2 µM. Consider `CN1/C(=C/C=C2\CCCC(/C=C/C3=[N+](C)c4ccccc4C3(C)C)=C2Sc2ccncc2)C(C)(C)c2ccccc21.[I-]`, for which the IC50 in the data set on PC-3 was 12.5 µM. Also, the Stability entry in data set [1] and in data set [2] was “Stable” each time. In the case of `CN1/C(=C/C=C2\CCCC(/C=C/C3=[N+](C)c4ccccc4C3(C)C)=C2N2CCC(CO)CC2)C(C)(C)c2ccccc21`, the midpoint of inhibition in the data set on PC-3, the IC50, lay at 9.33 µM.

On to `CN1/C(=C/C=C2\CCCC(/C=C/C3=[N+](C)c4ccccc4C3(C)C)=C2NCCO)C(C)(C)c2ccccc21.[I-]`, for which the IC50 in the data set with PC-3 is 4.73 µM. Also, the Stability result in data set [1] and in data set [2] was “Stable” each time.

`CN1/C(=C/C=C2\CCCC(/C=C/C3=[N+](C)c4ccccc4C3(C)C)=C2Oc2ccncc2)C(C)(C)c2ccccc21.[I-]` came in with a half-inhibitory concentration (IC50) with PC-3 of 5.22 µM. Besides, the Stability result in data set [1] and in data set [2] was “Stable” each time. As to `COc1cccc2c1C(=O)c1c(O)c3c(c(O)c1C2=O)C[C@@](O)(C(=O)CO)C[C@@H]3O[C@H]1C[C@H](N)[C@H](O)[C@H](C)O1` [DOXORUBICIN], half-maximal inhibition in the data set on PC-3 (IC50) required 2.6 µM.

Values taken from ChEMBL document CHEMBL4184087, “Synthesis, optical properties and cytotoxicity of meso-heteroatom substituted IR-786 analogs” (Bioorg Med Chem Lett, 2018).
